Patent US7398119B2, “Assessing blood brain barrier dynamics or identifying or measuring selected substances, including ethanol or toxins, in a subject by analyzing Raman spectrum signals” (Childrens Hospital Los Angeles, priority 1998, dated 2008)

How the values were obtained:
[1] = blood alcohol and brain alcohol levels; cited from earlier work
[2] = Correlation of aqueous humor glucose with rising blood glucose after ketamine/xylazine anesthesia; assay type: in vivo, New Zealand white rabbits; conditions: xylazine 7.5 mg/kg with ketamine 50 mg/kg, single intramuscular injection
Procedure: Nine female New Zealand white rabbits were used for this part of the study. They were anesthetized with ketamine (50 mg/kg) and xylazine (7.5 mg/kg) given as a single intramuscular injection. Xylazine blocks release of insulin from the pancreas and causes blood glucose to rise (K. Chalabi et al., Ophthalmic Res. 19, 289 (1987); J. Arnbjerg et al., Ophthalmic Res. 22, 265 (1990)).
Blood samples were taken from the central ear arteries at various times following the injection of anesthetic once the animals were adequately anesthetized. Whole blood was immediately measured for glucose concentration with a commercial glucometer (Glucometer Elite, Bayer). In most instances two measurements were made. The average measurements are reported. If the measurements differed by more than 20%, a third measurement was made. […]
At various times after induction of anesthesia, samples of aqueous humor were taken. […] Aqueous humor glucose concentration was measured with the glucometer in a manner similar to the blood. […]
Average blood glucose concentrations for each animal were plotted against time after anesthetic injection. Since it was not possible to obtain blood samples simultaneous with aqueous humor samples, a best-fit second-order polynomial was calculated for each animal. […] Aqueous humor glucose concentration was then plotted against the calculated simultaneous blood glucose concentration for all animals. […]

For `CCO` [alcohol, ethanol], the “concentrations that may be lethal” value [1] is listed as “above 1%”.

With `Cc1cccc(C)c1N=C1NCCCS1` [xylazine] the “effect on blood glucose over time” value [2] was “steadily rises at variable rates”.
